Experiments:
Type in all cases: biochemical, Acetobacter sp. CCTCC M209061
[1] = target: T1, AcCR (recombinant carbonyl reductase; GAcCR) (Acetobacter sp., UniProt A0A2S1GUX7); experiment: NADH absorbance at […] nm, initial rates; conditions: pH 6.5, 35 °C (optimum conditions), GST-tagged enzyme
T1 construct: N-terminal GST fusion from pGEX-2T, tag kept, about 53 kDa on SDS-PAGE; E. coli BL21(DE3)pLysS

[2] = target: T1, AcCR (recombinant carbonyl reductase; GAcCR); experiment: NADH formation at […] nm, initial rates; conditions: 45 °C, optimum conditions (pH 8.0 in assay method, optimum 8.5), GST-tagged enzyme
[3] = target: T1, AcCR (recombinant carbonyl reductase; GAcCR); experiment: NADPH formation at […] nm, initial rates; conditions: oxidation of isopropanol; 45 °C; optimum conditions (pH 8.0 in assay method); GST-tagged enzyme

T1 sequence (A0A2S1GUX7 1-253): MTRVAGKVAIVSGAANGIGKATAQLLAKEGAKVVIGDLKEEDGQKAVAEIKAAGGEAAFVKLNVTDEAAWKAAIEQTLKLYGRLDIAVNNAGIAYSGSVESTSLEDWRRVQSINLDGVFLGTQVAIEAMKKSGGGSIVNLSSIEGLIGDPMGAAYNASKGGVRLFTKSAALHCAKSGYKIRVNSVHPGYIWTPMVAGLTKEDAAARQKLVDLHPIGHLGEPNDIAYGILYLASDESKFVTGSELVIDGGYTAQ

With `CC(=O)c1ccc(Cl)cc1` [4′-Chloroacetophenone] the Km ([1]; co-substrate NADH) was 260 µM.
Compound `CC(C)O` [Isopropanol] has a Km ([2]; co-substrate NAD+) of 23800 µM.
Compound `NC(=O)C1=CN([C@@H]2O[C@H](COP(=O)(O)OP(=O)(O)OC[C@H]3O[C@@H](n4cnc5c(N)ncnc54)[C@H](O)[C@@H]3O)[C@@H](O)[C@H]2O)C=CC1` [NADH] has a Km ([1]; reduction of 4'-chloroacetophenone) of 160 µM.
Work on `NC(=O)c1ccc[n+]([C@@H]2O[C@H](COP(=O)(O)OP(=O)(O)OC[C@H]3O[C@@H](n4cnc5c(N)ncnc54)[C@H](OP(=O)(O)O)[C@@H]3O)[C@@H](O)[C@H]2O)c1` [NADP^+] yielded a Km [3] of 1390 µM.
`NC(=O)c1ccc[n+]([C@@H]2O[C@H](COP(=O)(O)OP(=O)(O)OC[C@H]3O[C@@H](n4cnc5c(N)ncnc54)[C@H](O)[C@@H]3O)[C@@H](O)[C@H]2O)c1` [NAD^+] was tested, and the Km ([2]; oxidation of isopropanol) was 380 µM.
